Read-outs that look alike come from different tables or passages of the source.
Legend:
NCI-H1944 = test: AKR1C3-dependent cytotoxicity, NSCLC cell line NCI-H1944; assay type: cell-based; conditions: Homo sapiens
Method: (§1) The tested compound was then added. The compound was dissolved in 100% DMSO at 200 times of the desired final test concentration. When the medicament was added, the compound was further diluted to 4 times of the desired final test concentration by using the complete medium. 50 μL of aliquots of the compound with specific concentration were added to the microwells containing 150 μL of medium, and then the final medicament concentration was obtained. […] The medicament was then washed. […] After the incubation was finished, the Alamar Blue was used to analyze and quantify the living cells.

[1] = tested on: HuPrime model LI6664 human liver cancer; test: In vivo pharmacodynamics, liver cancer LI6664 PDX model; parameters: species or system BALB/c nude mice; conditions: for Relative tumor volume (x ± S) / Tumor volume (x ± S): mean ± standard error; for Tumor volume (x ± S): in mm³ (unit assumed)
Method: Experiment Instruction: BALB/c nude mice were subcutaneously inoculated with HuPrime® model LI6664 tumor blocks to establish a subcutaneous transplantation tumor model of human liver cancer. […] Among them, 7.5% anhydrous ethanol+7.5% polyoxyethylene (35) castor oil+85% glucose injection D5W (pH 7.4) vehicle control group was administered by tail vein once a week for 3 consecutive weeks; test drug AST-3424 0.3 mg/kg and 1 mg/kg groups were administered by tail vein injection once a day for 5 consecutive days, followed by 2 days off, followed by 2 weeks off, and then continuously administered for 5 consecutive days; the test drug AST-3424 1.25 mg/kg group was administered by tail vein injection once a week for 2 consecutive weeks, followed by one week off, and then continuously administered for 2 consecutive weeks, Compound A 0.5 mg/kg, 1.5 mg/kg, and 4.5 mg/kg groups were administered by tail vein injection once a week for three consecutive weeks, followed by 1 week off, and then administered for three consecutive weeks. […] The efficacy was evaluated according to the relative tumor inhibition rate TGI (%), and the safety was evaluated according to the change in body weight and the death of the animals.

[2] = Liver microsome stability, human; assay type: in vitro ADME; conditions: Human liver microsomes; with the addition of NADPH
Method: (§2) 1) Two individual experiments were performed.
(§3) All experiments were performed in duplicate.

[3] = Liver microsome stability, mouse; assay type: in vitro ADME; conditions: Mouse liver microsomes; with the addition of NADPH
Method: as §2, §3

H460 cells = test: Inhibition of H460 cancer cell proliferation (CTG, 72 h); assay type: cell-based; conditions: Homo sapiens, NCI-H460
Method: If not otherwise specified, IC50 values were measured by the following experimental methods:
c) The cell suspension was added to 96-well plate with 100 μL per well and 2000 cells/well of cell density.
a) Cells were plated for 24 hours, and then the compounds acted singly. 99 μL of growth medium was supplemented per well, and then 1 μL of 200× compound was added, gently shaken to ensure uniform mixing, and then placed in a 37° C., 5% CO2 incubator.
b) The cell plate was placed in the incubator for 72 hours.
b) 100 μL of CTG reagent (CelltiterGlo kit) was added to each well, the plate was placed in a rapid oscillator and shaken for 2 minutes, and then placed at room temperature for 30 minutes away from light.
c) The chemiluminescence signal value was read with Envision instrument.
The IC50 was calculated using GraphPad Prism 8 software and the IC50 (half inhibitory concentration) of the compounds was obtained using the following non-linear fitting formula: […]

CAL12T = test: AKR1C3-dependent cytotoxicity, NSCLC cell line CAL12T; assay type: cell-based; conditions: Homo sapiens, CAL-12T
Method: as §1

P-gp = target: T1, P-gp (Homo sapiens, UniProt P08183); test: P-gp substrate evaluation, MDCKII-MDR1 penetration test with or without Verapamil; assay type: in vitro ADME
T1 construct: expressed in transfected cells; host or cells: MDCKII-MDR1 cells
Method: The conditions of the incubator were set as 37° C., 5% CO2, and 95% of the relative humidity.
After that, the MDCKII-MDR1 cells can be used for the penetration test.
(1) MDCKII-MDR1 transwell culture plate was taken out from the incubator.
(6) The upper and lower transportations were pooled and then incubated at 37° C. for 2 h.
After the sample tubes were vortexed for 10 min, and centrifuged at 3220 g for 30 min. […] Each sample was adopted to the three parallel incubation.
Efflux Ratio was calculated by the following formula: […]
Recovery was calculated by the following formula: […]

T1 sequence (P08183 whole entry): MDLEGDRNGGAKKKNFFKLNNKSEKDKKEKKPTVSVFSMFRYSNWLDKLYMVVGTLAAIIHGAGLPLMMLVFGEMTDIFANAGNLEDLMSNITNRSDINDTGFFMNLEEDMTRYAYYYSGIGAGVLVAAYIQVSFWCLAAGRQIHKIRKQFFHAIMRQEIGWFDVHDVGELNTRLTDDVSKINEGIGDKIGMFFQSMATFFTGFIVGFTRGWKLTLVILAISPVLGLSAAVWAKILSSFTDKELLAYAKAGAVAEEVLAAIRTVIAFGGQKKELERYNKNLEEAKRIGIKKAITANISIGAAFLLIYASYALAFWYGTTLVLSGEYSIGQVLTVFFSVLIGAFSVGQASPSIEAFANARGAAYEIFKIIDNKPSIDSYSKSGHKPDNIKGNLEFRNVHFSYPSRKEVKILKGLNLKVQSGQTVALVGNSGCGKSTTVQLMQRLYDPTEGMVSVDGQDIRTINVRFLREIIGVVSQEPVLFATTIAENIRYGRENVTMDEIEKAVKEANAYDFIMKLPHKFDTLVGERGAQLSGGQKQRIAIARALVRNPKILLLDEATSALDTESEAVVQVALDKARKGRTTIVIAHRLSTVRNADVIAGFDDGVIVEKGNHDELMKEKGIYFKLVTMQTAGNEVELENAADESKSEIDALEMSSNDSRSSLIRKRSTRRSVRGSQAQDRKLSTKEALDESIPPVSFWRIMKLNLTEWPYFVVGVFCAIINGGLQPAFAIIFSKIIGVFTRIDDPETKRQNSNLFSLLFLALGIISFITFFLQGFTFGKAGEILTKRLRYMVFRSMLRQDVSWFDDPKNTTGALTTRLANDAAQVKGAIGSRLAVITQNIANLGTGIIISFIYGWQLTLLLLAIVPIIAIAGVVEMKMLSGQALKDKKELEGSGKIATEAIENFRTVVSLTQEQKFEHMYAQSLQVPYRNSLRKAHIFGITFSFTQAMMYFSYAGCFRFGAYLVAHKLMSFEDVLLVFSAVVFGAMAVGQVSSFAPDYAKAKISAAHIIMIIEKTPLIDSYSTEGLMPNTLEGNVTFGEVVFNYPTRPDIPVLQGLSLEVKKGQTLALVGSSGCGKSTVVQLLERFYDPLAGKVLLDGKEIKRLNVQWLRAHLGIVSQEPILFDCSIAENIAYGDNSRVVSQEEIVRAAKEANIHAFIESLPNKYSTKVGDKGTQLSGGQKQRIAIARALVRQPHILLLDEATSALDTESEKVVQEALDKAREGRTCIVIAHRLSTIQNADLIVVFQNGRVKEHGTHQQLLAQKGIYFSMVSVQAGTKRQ

Structure (SMILES): C[C@@H](OP(=O)(N1CC1)N1CC1)c1ccc([N+](=O)[O-])c(Oc2cccc(C(=O)N(C)C)c2)c1 [AST-3424]
- IC50 (NCI-H1944): 2.3 nM
- relative tumor inhibition rate TGI (%) ([1]; 0.3 mg/kg i.v. QDx5, 2 days off, 2 weeks off, QDx5, Day 28): 45.85%
- relative tumor inhibition rate TGI (%) ([1]; 1 mg/kg i.v. QDx5, 2 days off, 2 weeks off, QDx5, Day 28): 65.05%
- relative tumor inhibition rate TGI (%) ([1]; 1.25 mg/kg i.v. QWx2, 1 week off, QWx2, Day 28): 52.42%
- T/C (%) ([1]; AST-3424 0.3 mg/kg, Day 28): 54.15%
- Relative tumor volume (x ± S) ([1]; AST-3424 0.3 mg/kg, Day 28): 6.99 ± 1.31
- Tumor volume (x ± S) ([1]; AST-3424 0.3 mg/kg, Day 28): 746.71 ± 130.55
- T/C (%) ([1]; AST-3424 1 mg/kg, Day 28): 34.95%
- Relative tumor volume (x ± S) ([1]; AST-3424 1 mg/kg, Day 28): 4.51 ± 1.21
- Tumor volume (x ± S) ([1]; AST-3424 1 mg/kg, Day 28): 463.09 ± 99.32
- T/C (%) ([1]; AST-3424 1.25 mg/kg, Day 28): 47.58%
- Relative tumor volume (x ± S) ([1]; AST-3424 1.25 mg/kg, Day 28): 6.14 ± 0.94
- Tumor volume (x ± S) ([1]; AST-3424 1.25 mg/kg, Day 28): 687.95 ± 147.16
- Size of tumor volume ([1]; Group3, AST-3424 0.3 mg/kg, Day 0): 108.20 mm^3
- Size of tumor volume ([1]; Group3, AST-3424 0.3 mg/kg, Day 4): 162.32 mm^3
- Size of tumor volume ([1]; Group3, AST-3424 0.3 mg/kg, Day 7): 177.51 mm^3
- Size of tumor volume ([1]; Group3, AST-3424 0.3 mg/kg, Day 11): 208.59 mm^3
- Size of tumor volume ([1]; Group3, AST-3424 0.3 mg/kg, Day 14): 306.95 mm^3
- Size of tumor volume ([1]; Group3, AST-3424 0.3 mg/kg, Day 18): 391.40 mm^3
- Size of tumor volume ([1]; Group3, AST-3424 0.3 mg/kg, Day 21): 499.34 mm^3
- Size of tumor volume ([1]; Group3, AST-3424 0.3 mg/kg, Day 25): 631.08 mm^3
- Size of tumor volume ([1]; Group3, AST-3424 0.3 mg/kg, Day 28): 746.71 mm^3
- Size of tumor volume ([1]; Group3, AST-3424 0.3 mg/kg, Day 32): 958.09 mm^3
- Size of tumor volume ([1]; Group3, AST-3424 0.3 mg/kg, Day 35): 1059.71 mm^3
- Size of tumor volume ([1]; Group3, AST-3424 0.3 mg/kg, Day 39): 1226.51 mm^3
- Size of tumor volume ([1]; Group3, AST-3424 0.3 mg/kg, Day 42): 1094.69 mm^3
- Size of tumor volume ([1]; Group3, AST-3424 0.3 mg/kg, Day 46): 1268.82 mm^3
- Size of tumor volume ([1]; Group3, AST-3424 0.3 mg/kg, Day 49): 1486.77 mm^3
- Size of tumor volume ([1]; Group4, AST-3424 1 mg/kg, Day 0): 107.53 mm^3
- Size of tumor volume ([1]; Group4, AST-3424 1 mg/kg, Day 4): 131.59 mm^3
- Size of tumor volume ([1]; Group4, AST-3424 1 mg/kg, Day 7): 145.23 mm^3
- Size of tumor volume ([1]; Group4, AST-3424 1 mg/kg, Day 11): 158.03 mm^3
- Size of tumor volume ([1]; Group4, AST-3424 1 mg/kg, Day 14): 233.54 mm^3
- Size of tumor volume ([1]; Group4, AST-3424 1 mg/kg, Day 18): 291.97 mm^3
- Size of tumor volume ([1]; Group4, AST-3424 1 mg/kg, Day 21): 371.35 mm^3
- Size of tumor volume ([1]; Group4, AST-3424 1 mg/kg, Day 25): 438.00 mm^3
- Size of tumor volume ([1]; Group4, AST-3424 1 mg/kg, Day 28): 463.09 mm^3
- Size of tumor volume ([1]; Group4, AST-3424 1 mg/kg, Day 32): 622.48 mm^3
- Size of tumor volume ([1]; Group4, AST-3424 1 mg/kg, Day 35): 748.13 mm^3
- Size of tumor volume ([1]; Group4, AST-3424 1 mg/kg, Day 39): 929.60 mm^3
- Size of tumor volume ([1]; Group4, AST-3424 1 mg/kg, Day 42): 1226.79 mm^3
- Size of tumor volume ([1]; Group4, AST-3424 1 mg/kg, Day 46): 1496.83 mm^3
- Size of tumor volume ([1]; Group4, AST-3424 1 mg/kg, Day 49): 1717.60 mm^3
- Size of tumor volume ([1]; Group5, AST-3424 1.25 mg/kg, Day 0): 108.46 mm^3
- Size of tumor volume ([1]; Group5, AST-3424 1.25 mg/kg, Day 4): 174.65 mm^3
- Size of tumor volume ([1]; Group5, AST-3424 1.25 mg/kg, Day 7): 210.25 mm^3
- Size of tumor volume ([1]; Group5, AST-3424 1.25 mg/kg, Day 11): 222.97 mm^3
- Size of tumor volume ([1]; Group5, AST-3424 1.25 mg/kg, Day 14): 291.02 mm^3
- Size of tumor volume ([1]; Group5, AST-3424 1.25 mg/kg, Day 18): 361.03 mm^3
- Size of tumor volume ([1]; Group5, AST-3424 1.25 mg/kg, Day 21): 467.94 mm^3
- Size of tumor volume ([1]; Group5, AST-3424 1.25 mg/kg, Day 25): 581.63 mm^3
- Size of tumor volume ([1]; Group5, AST-3424 1.25 mg/kg, Day 28): 687.95 mm^3
- Size of tumor volume ([1]; Group5, AST-3424 1.25 mg/kg, Day 32): 746.71 mm^3
- Size of tumor volume ([1]; Group5, AST-3424 1.25 mg/kg, Day 35): 871.84 mm^3
- Size of tumor volume ([1]; Group5, AST-3424 1.25 mg/kg, Day 39): 1081.64 mm^3
- Size of tumor volume ([1]; Group5, AST-3424 1.25 mg/kg, Day 42): 1307.36 mm^3
- Size of tumor volume ([1]; Group5, AST-3424 1.25 mg/kg, Day 46): 1675.14 mm^3
- Size of tumor volume ([1]; Group5, AST-3424 1.25 mg/kg, Day 49): 1923.31 mm^3
- weight loss ([1]; mouse, in vivo): no weight loss
- Percentage remaining after 30 minutes [2]: 10.65%
- Percentage remaining after 30 minutes [3]: 3.1%
- IC50 (H460 cells): 0.11 nM
- IC50 (CAL12T): 29.1 nM
- P-gp substrate (P-gp; MDCKII-MDR1, with and without Verapamil): Pgp substrate
- Papp A→B at 2 h (P-gp; dog, MDCK-MDR1): 1.95 ×10⁻⁶ cm/s
- Papp B→A at 2 h (P-gp; dog, MDCK-MDR1): 34.5 ×10⁻⁶ cm/s
- recovery at 2 h (P-gp; dog, MDCK-MDR1, Verapamil 0 μM, read-out: Recovery (%) AP-BL): 79.1%
- recovery at 2 h (P-gp; dog, MDCK-MDR1, Verapamil 0 μM, read-out: Recovery (%) BL-AP): 90.6%
- recovery at 2 h (P-gp; dog, MDCK-MDR1, with Verapamil 100 μM, Verapamil 100 μM, read-out: Recovery (%) AP-BL): 92.6%
- recovery at 2 h (P-gp; dog, MDCK-MDR1, with Verapamil 100 μM, Verapamil 100 μM, read-out: Recovery (%) BL-AP): 96.3%

Reference: patent publication US20260159536A1, “AKR1C3-ACTIVATED DNA ALKYLATING AGENT, AND MEDICAL APPLICATION THEREOF” (ASCENTAWITS PHARMACEUTICALS, LTD., priority 2021, published 2026)
